Experimental data published in article PMC9294463, “Green Synthesis of Thiazolidine-2,4-dione Derivatives and Their Lipoxygenase Inhibition Activity With QSAR and Molecular Docking Studies” (Frontiers in Chemistry, 2022).

Biological target: T1, soybean lipoxygenase (Glycine max, UniProt P08170)
T1 construct: gene LOX1.1
T1 sequence (P08170 1-839): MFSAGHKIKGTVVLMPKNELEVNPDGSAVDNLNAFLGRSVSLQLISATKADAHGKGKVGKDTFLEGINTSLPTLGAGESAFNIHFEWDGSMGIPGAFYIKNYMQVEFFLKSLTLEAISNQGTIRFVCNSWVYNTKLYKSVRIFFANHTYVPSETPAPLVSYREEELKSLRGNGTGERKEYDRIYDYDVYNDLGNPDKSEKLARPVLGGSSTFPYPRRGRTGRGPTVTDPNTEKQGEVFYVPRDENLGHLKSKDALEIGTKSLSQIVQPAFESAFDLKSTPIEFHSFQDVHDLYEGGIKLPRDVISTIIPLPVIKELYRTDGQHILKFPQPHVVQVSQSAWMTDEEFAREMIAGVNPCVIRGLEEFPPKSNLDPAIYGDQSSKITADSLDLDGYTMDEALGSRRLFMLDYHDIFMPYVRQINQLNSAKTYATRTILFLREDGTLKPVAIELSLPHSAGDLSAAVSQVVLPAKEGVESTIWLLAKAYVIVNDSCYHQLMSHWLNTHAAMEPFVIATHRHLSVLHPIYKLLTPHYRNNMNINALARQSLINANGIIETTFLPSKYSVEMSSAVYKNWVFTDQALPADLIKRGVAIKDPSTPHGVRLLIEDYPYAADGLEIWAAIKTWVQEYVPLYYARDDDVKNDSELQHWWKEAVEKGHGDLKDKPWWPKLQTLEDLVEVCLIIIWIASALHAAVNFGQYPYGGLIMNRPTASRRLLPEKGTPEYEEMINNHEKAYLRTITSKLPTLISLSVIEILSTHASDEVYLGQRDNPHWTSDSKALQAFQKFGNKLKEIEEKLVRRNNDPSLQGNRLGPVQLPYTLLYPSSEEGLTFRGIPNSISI
Assay: soybean lipoxygenase inhibition assay, % inhibition at […] (standard)
Type: biochemical

SMILES: C[C@H](Cc1ccc(O)c(O)c1)[C@@H](C)Cc1ccc(O)c(O)c1 [NDGA, nordihydroguaiaretic acid]
- inhibition at 100 µM: 80.8%
